# Data: US8202890B2, “Pest control agent” (Meiji Seika Pharma Co., Ltd., priority 2006, dated 2012)
# Assays:
# Pseudococcus comstocki = assay: Pesticidal effect against Pseudococcus comstocki (Phaseolus vulgaris leaf disk); assay type: in vivo; settings: Pseudococcus comstocki first instar larvae, spread, 3 days, 25° C.
# Procedure: A leaf disk having a diameter of 2.8 cmφ was cut out from a leaf of Phaseolus vulgaris and was placed on an agar in a plastic cup, into which ten (10) of larvae of Pseudococcus comstocki at the first instar were released. A test solution, which had been adjusted to a predetermined concentration by the addition of a 50% aqueous acetone solution (0.05% Tween 20 added) was spread. After air dried, it was allowed to stand in a temperature-controlled room (light period 16 hr-dark period 8 hr) (25° C.).
# (§1) The death rate of larvae was calculated by the following equation. Death rate (%)={number of dead larvae/(number of survived larvae+number of dead larvae)}×100 The concentrations which gave the death rate of 90% or more are shown in Table 2.
# Myzus persicae = assay: Pesticidal effect against Myzus persicae (cabbage leaf disk); assay type: in vivo; settings: Myzus persicae first instar larvae, spread, 3 days, 25° C.
# Excerpt: A leaf disk having a diameter of 2.8 cmφ was cut out from a cabbage grown in a pot and was placed in a 5.0 cm-Schale. Four adult aphids of Myzus persicae were released in the Schale. One day after the release of the adult aphids, the adult aphids were removed. The number of larvae at the first instar born in the leaf disk was adjusted to 10, and a test solution, which had been adjusted to a predetermined concentration by the addition of a 50% aqueous acetone solution (0.05% Tween 20 added) was spread over the cabbage leaf disk. The cabbage leaf disk was then air dried. Thereafter, the Schale was lidded and was allowed to stand in a temperature-controlled room (light period 16 hr-dark period 8 hr) (25° C.).
# as §1
# Aphis gossypii = assay: Pesticidal effect against Aphis gossypii (cucumber leaf disk); assay type: in vivo; settings: Aphis gossypii first instar larvae, spread, 3 days, 25° C.
# Excerpt: A leaf disk having a diameter of 2.0 cmφ was cut out from a cucumber grown in a pot and was placed in a 5.0 cm-Schale. A test solution, which had been adjusted to a predetermined concentration by the addition of a 50% aqueous acetone solution (0.05% Tween 20 added) was spread over the […] leaf disk. After air dried, ten (10) of larvae of Aphis gossypii at the first instar were released in the Schale. Thereafter, the Schale was lidded and was allowed to stand in a temperature-controlled room (light period 16 hr-dark period 8 hr) (25° C.).
# as §1
# Tenebrio molitor L = settings: in vivo; cited from earlier work
# [1] = tested on: larvae of Helicoverpa zea; settings: in vivo; cited from earlier work
# [2] = tested on: Plutella xylostella L larvae; settings: in vivo; cited from earlier work
Compound,"Concentration (ppm) for the death rate of 90% or more, Test Example 3 (Pseudococcus comstocki) [ppm]","Concentration (ppm) for the death rate of 90% or more, Test Example 1 (Myzus persicae) [ppm]","Concentration (ppm) for the death rate of 90% or more, Test Example 2 (Aphis gossypii) [ppm]",insecticidal activity against Tenebrio molitor L (Tenebrio molitor L),insecticidal activity against larvae of Helicoverpa zea [1],insecticidal activity against Plutella xylostella L larvae [2]
CC1(COC(=O)C2CC2)C2CC(=O)[C@@]3(C)Oc4cc(-c5cccnc5)oc(=O)c4[C@H](O)C3[C@@]2(C)CC[C@@H]1OC(=O)C1CC1 (stereo partly drawn) [Compound 1],0.156,0.010,0.078,–,–,–
Pyripyropene A,–,–,–,insecticidal activity,insecticidal activity,insecticidal activity
CC1(COC(=O)C2CC2)C2CC[C@@]3(C)Oc4cc(-c5cccnc5)oc(=O)c4[C@H](O)C3[C@@]2(C)CC[C@@H]1OC(=O)C1CC1 (stereo partly drawn) [Compound 2],0.625,0.039,0.078,–,–,–
